How the values were obtained:
[1] = test system: transformed human keratinocyte cell line (FEP 1811); assay: Clonogenic survival cell culture assay for radioprotective activity (12 Gy 137Cs gamma irradiation); assay type: cell-based; details: 12 Gy; for DMF10 (dose modification factor at a concentration of 10 microM of radioprotector): 10 microM radioprotector; for DMFm (dose modification factor at maximum protection): DMF=Dp/Dc at survival level Sm; for PF (protection factor = Sm/So): survival at maximum protection vs irradiation only
Outline: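 Survival after irradiation gave protection factor PF = Sm/So (maximum-protection survival over irradiation-only survival). DMF = Dp/Dc is the ratio of doses giving survival Sm with and without radioprotector. DMF10 uses survival at 10 microM radioprotector in place of Sm.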

[2] = test system: oral mucosa of mouse tongue; assay: Topical radioprotection of the oral mucosa of mouse tongue (mucosal ulceration endpoint); assay type: in vivo, mice of the inbred C3H/Neu strain
Procedure: Mice of the inbred C3H/Neu strain were sourced from a breeding colony at the Medical Faculty Carl Gustav Cams, Dresden, Germany. The animals were bred and housed under specified pathogen-free conditions. Housing was under controlled conditions of humidity (30-50%) and temperature (21° C.-24° C.). An automated light programme regulated a 12/12-hour light/dark rhythm with lights on from 6 am to 6 pm. The mice were kept in size 3 Macrolon cages, maximum of 10 per cage, on sawdust bedding. Standard mouse diet (Altromin 1326, Altrogge) and filtered city tap water from standard perspex drinking bottles were provided ad libitum.
A 3 mm×3 mm field at the middle of the lower surface of the mouse tongue was irradiated with 25 kV x-rays from a Darpac 150-MC device (Forward Raytech Ltd, Swinburne, UK) operated with a tube current of 20 milliamps yielding a dose rate of 3.78 Gy per minute and a focus-skin distance of 15 cm. Anaesthetised mice (sodium pentabarbitone; 60 mg per kg) were placed in a supine position in the central cylindrical hole (diameter 25 mm) of a pre-warmed aluminium block (approximately 35° C.). The tongue was guided through a hole (diameter 3 mm) in roof of the block by use of forceps, and the upper surface of the tongue was fixed to the outer surface of the block with double-sided adhesive tape. The head was supported by a polystyrene wedge to avoid traction of the base of the tongue and consequent hypoxia. The collimator was a 1 mm thick aluminium plate with a 3×3 mm^2 window positioned centrally over the lower surface of the tongue. Groups of 10 mice, were irradiated with 5 different doses in the range of 10-20 Gy.
One hour prior to irradiation, 10 microlitres of formulation was applied to the lower surface of the tongue of anaesthetised mice using a displacement micropipette. Thirty minutes later, a second 10 microlitre aliquot of the formulation was applied and the mice irradiated thirty minutes later.
Stock solutions of the appropriate drug in propylene glycol or water were diluted with an aqueous solution of Poloxamer 407 gel (BASF Lutrol F 127) and/or a solution of hydroxypropyl cellulose (approx average MW 80,000; Aldrich cat no 435007) in propylene glycol and with water and/or propylene glycol, producing each of two formulations: • Formulation 1—gel, which contained 10 or 30 mM drug in 20% Poloxamer 407 and 1% hydroxylpropyl cellulose in 30% propylene glycol in water, and • Formulation 2—Liquid, which contained 10, 30 or 60 mM drug in propylene glycol […] of 2% hydroxypropyl cellulose. Scoring and Data Analysis
At various times after irradiation, the lower surface of the tongue of anaesthetised mice was examined daily. The quantal endpoint used was mucosal ulceration, corresponding to confluent mucositis RTOG/EORTC grade 3. The data plotted in the example figures is the percentage of a group of 10 mice in which the endpoint of mucosal ulceration was scored for at least 2 consecutive days. Radiation dose effect curves were generated with a single parameter sigmoidal relationship (logistic function
[formula] using the Prism 5.0 curve-fitting programme to generate the ED50 value, which corresponds to the interpolated radiation dose at which 50% of the mice in the group reached the mucosal ulceration endpoint.

[3] = 10 mM drug in Formulation 1, topical to tongue
[4] = 10 mM drug in Formulation 1 vs vehicle
[5] = 30 mM drug in Formulation 2, topical to tongue
[6] = 30 mM drug in Formulation 2 vs vehicle

SMILES | DMF10 (dose modification factor at a concentration of 10 microM of radioprotector) [1] | DMFm (dose modification factor at maximum protection) [1] | PF (protection factor = Sm/So) [1] | ED50 (radiation dose at which 50% of the mice reached mucosal ulceration) [2, 3] | dose reduction factor [2, 4] | ED50 (radiation dose at which 50% of the mice reached mucosal ulceration) [2, 5] | dose reduction factor [2, 6] | ED50 (radiation dose at which 50% of the mice reached mucosal ulceration) ([2]; 60 mM drug in Formulation 3, topical to tongue) | dose reduction factor ([2]; 60 mM drug in Formulation 3 vs blank formulation)
CN1CCN(c2ccc3nc(-c4ccc5nc(-c6ccccn6)[nH]c5c4)[nH]c3c2)CC1 [Example 2, 2-(5′-(5″-(4′″-Methylpiperazin-1′″-yl)benzimidazol-2″-yl)benzimidazol-2′-yl)pyridine] | 1.93 | 2.10 | 18.2 | 14.4 Gy | 1.20 | – | – | – | –
Cc1ccc(-c2nc3ccc(-c4nc5ccc(N6CCN(C)CC6)cc5[nH]4)cc3[nH]2)nc1 [Example 6, 5-Methyl-2-(5′-(5″-(4′″-methylpiperazin-1′″-yl)benzimidazol-2″-yl)benzimidazol-2′-yl)pyridine] | 2.43 | 2.52 | 26.2 | – | – | 14.6 Gy | 1.13 | – | –
c1ccc(-c2nc3ccc(-c4nc5ccc(N6CCOCC6)cc5[nH]4)cc3[nH]2)nc1 [Example 19, 2-(5′-(5″-Morpholinobenzimidazol-2″-yl)benzimidazol-2′-yl)pyridine] | 1.66 | 2.26 | 69.6 | 14.3 Gy | 1.19 | 15.2 Gy | 1.18 | – | –
OC1CCN(c2ccc3nc(-c4ccc5nc(-c6cc7ccccc7cn6)[nH]c5c4)[nH]c3c2)CC1 [Example 23, 3-(5′-(5″-(4′″-Hydroxypiperidin-1′″-yl)benzimidazol-2″-yl)benzimidazol-2′-yl)isoquinoline] | 2.13 | 2.26 | 36.5 | – | – | – | – | 14.6 Gy | 1.13

From USRE46943E1, “Radioprotector compounds and methods” (PETER MACCALLUM CANCER INSTITUTE, priority 2010, dated 2018)
